Experiments:
[1] = system: TRZAWR (Wheat, Winter, cv Riband); experiment: Preemergence herbicidal evaluation; type: in vivo, Triticum aestivum; conditions: rated 4-5 weeks after treatment
Method in brief: (§1)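 Greenhouse preemergence test: seed-soil mix sown on ~1 inch soil; aqueous acetone spray at equivalent of ~0.0156–0.500 kg/ha; greenhouse-held and watered; scored 0–9 visually at 4–5 weeks.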

CYPIR (Rice Flatsedge) = experiment: Preemergence weed control under flooded paddy conditions; type: in vivo, Cyperus iria; conditions: rated 3-4 weeks after treatment
Method in brief: (§2)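 Seeds or propagules sown in silt loam kept flooded 1.5-3 cm; compounds in 50/50 acetone/water pipetted into flood water at about 0.0313 to 0.500 kg/ha. Greenhouse; visual 0-9 rating versus untreated control 3-4 weeks after treatment.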

[2] = system: IPOHE (Morningglory, Ivyleaf); experiment: Preemergence herbicidal evaluation; type: in vivo, Ipomoea hederacea; conditions: rated 4-5 weeks after treatment
Method in brief: as §1

ORYSAT (Rice, Tebonnet) = experiment: Preemergence herbicidal evaluation; type: in vivo, Oryza sativa, (L.) Tebonnet; conditions: rated 4-5 weeks after treatment
Method in brief: as §1

CYPSE (Flatsedge) [3] = experiment: Preemergence weed control under flooded paddy conditions; type: in vivo, Cyperus serotinus; conditions: rated 3-4 weeks after treatment
Method in brief: as §2

ZEAMX (Corn, Field) [4] = experiment: Preemergence herbicidal evaluation; type: in vivo, Zea mays; conditions: rated 4-5 weeks after treatment
Method in brief: as §1

CASOB (Sicklepod) = experiment: Postemergence herbicidal evaluation; type: in vivo, Cassia obtusifolia
Method in brief: (§3)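 Young plants, roughly two weeks from seeding, receive the active ingredient as a sprayed dispersion (acetone/water 50/50, 0.5% TWEEN 20) at 40 psi. Doses span about 0.0156 to 0.500 kg/ha. A visual score from 0 to 9 compares treated with control plants four to five weeks on.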

GALAP (Galium) = experiment: Postemergence herbicidal evaluation; type: in vivo, Galium aparine
Method in brief: as §3

CYPSE (Flatsedge) [5] = experiment: Postemergence weed control under flooded paddy conditions; type: in vivo, Cyperus serotinus; conditions: postemergence weeds, rated 3 to 4 weeks after treatment
Method in brief: (§4)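 With weeds 3 to 5 cm tall and rice at the 1.5 to 2.5 leaf stage, containers were flooded and water held 1.5 to 3 cm above soil. Compounds in 50/50 v/v aqueous/acetone went into the flood water at about 0.0313 to 0.500 kg/ha a.i. Effects were visually rated 0–9 against controls after three to four weeks in the greenhouse.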

[6] = system: CHEAL (Lambsquarters, Common); experiment: Preemergence herbicidal evaluation; type: in vivo, Chenopodium album; conditions: rated 4-5 weeks after treatment
Method in brief: as §1

[7] = system: ECHORC (Watergrass (Calif.)); experiment: Preemergence weed control under flooded paddy conditions; type: in vivo, Echinochloa oryzoides; conditions: rated 3-4 weeks after treatment
Method in brief: as §2

AMBEL (Ragweed, Common) = experiment: Preemergence herbicidal evaluation; type: in vivo, Ambrosia artemisifolia; conditions: rated 4-5 weeks after treatment
Method in brief: as §1

ZEAMX (Corn, Field) [8] = experiment: Postemergence herbicidal evaluation; type: in vivo, Zea mays
Method in brief: as §3

[9] = system: ECHORC (Watergrass (Calif.)); experiment: Postemergence weed control under flooded paddy conditions; type: in vivo, Echinochloa oryzoides; conditions: postemergence weeds, rated 3 to 4 weeks after treatment
Method in brief: as §4

C=CCN1C(=O)C(CC(=O)O)SC1=Nc1cc(-n2c(=O)cc(C(F)(F)F)n(C)c2=O)c(F)cc1Cl (stereo not shown) [Compound 62, 3-Allyl-2-{{2-chloro-5-[3,6-dihydro-3-methyl-2,6-dioxo-4-(trifluoromethyl)-1(2H)-pyrimidinyl]-4-fluorophenyl}imino}-4-oxo-5-thiazolidineacetic acid]
6.0: Preemergence herbicidal rating ORYSAT (ORYSAT (Rice, Tebonnet); rate 0.2500 kg/ha) | Postemergence herbicidal rating CASOB (CASOB (Sicklepod); Rate 0.0630 kg/ha)
1.0: Preemergence herbicidal rating TRZAWR ([1]; rate 0.0625 kg/ha) | Preemergence herbicidal rating TRZAWR ([1]; rate 0.1250 kg/ha) | Preemergence herbicidal rating ORYSAT (ORYSAT (Rice, Tebonnet); rate 0.0625 kg/ha) | Preemergence herbicidal rating ZEAMX (ZEAMX (Corn, Field) [4]; rate 0.0313 kg/ha) | Preemergence herbicidal rating ZEAMX (ZEAMX (Corn, Field) [4]; rate 0.0625 kg/ha) | Postemergence herbicidal rating CASOB (CASOB (Sicklepod); Rate 0.0158 kg/ha) | Postemergence herbicidal rating GALAP (GALAP (Galium); Rate 0.0158 kg/ha)
7.0: Preemergence herbicidal rating IPOHE ([2]; rate 0.1250 kg/ha) | Preemergence herbicidal rating ZEAMX (ZEAMX (Corn, Field) [4]; rate 0.2500 kg/ha) | Preemergence herbicidal rating CHEAL ([6]; rate 0.0156 kg/ha) | Preemergence herbicidal rating AMBEL (AMBEL (Ragweed, Common); rate 0.0625 kg/ha) | Preemergence herbicidal rating AMBEL (AMBEL (Ragweed, Common); rate 0.2500 kg/ha)
2.0: Preemergence herbicidal rating TRZAWR ([1]; rate 0.2500 kg/ha) | CYPIR herbicidal effect rating (CYPIR (Rice Flatsedge); 0.0625 kg/ha) | Postemergence herbicidal rating CASOB (CASOB (Sicklepod); Rate 0.0315 kg/ha) | ECHORC herbicidal effect rating ([7]; 0.1250 kg/ha) | Preemergence herbicidal rating AMBEL (AMBEL (Ragweed, Common); rate 0.0156 kg/ha) | Herbicidal rating ECHORC ([9]; Rate 0.1250 kg/ha)
4.0: Preemergence herbicidal rating ORYSAT (ORYSAT (Rice, Tebonnet); rate 0.1250 kg/ha)
8.0: Postemergence herbicidal rating ZEAMX (ZEAMX (Corn, Field) [8]; Rate 0.0315 kg/ha) | Postemergence herbicidal rating ZEAMX (ZEAMX (Corn, Field) [8]; Rate 0.0630 kg/ha)
0.0: Preemergence herbicidal rating TRZAWR ([1]; rate 0.0156 kg/ha) | CYPIR herbicidal effect rating (CYPIR (Rice Flatsedge); 0.0313 kg/ha) | Preemergence herbicidal rating IPOHE ([2]; rate 0.0156 kg/ha) | Preemergence herbicidal rating ORYSAT (ORYSAT (Rice, Tebonnet); rate 0.0156 kg/ha) | Preemergence herbicidal rating ORYSAT (ORYSAT (Rice, Tebonnet); rate 0.0313 kg/ha) | CYPSE herbicidal effect rating (CYPSE (Flatsedge) [3]; 0.0313 kg/ha) | CYPSE herbicidal effect rating (CYPSE (Flatsedge) [3]; 0.0625 kg/ha) | CYPSE herbicidal effect rating (CYPSE (Flatsedge) [3]; 0.1250 kg/ha) | CYPSE herbicidal effect rating (CYPSE (Flatsedge) [3]; 0.2500 kg/ha) | Preemergence herbicidal rating ZEAMX (ZEAMX (Corn, Field) [4]; rate 0.0156 kg/ha) | Herbicidal rating CYPSE (CYPSE (Flatsedge) [5]; Rate 0.0313 kg/ha) | Herbicidal rating CYPSE (CYPSE (Flatsedge) [5]; Rate 0.0625 kg/ha) | Herbicidal rating CYPSE (CYPSE (Flatsedge) [5]; Rate 0.1250 kg/ha) | Herbicidal rating CYPSE (CYPSE (Flatsedge) [5]; Rate 0.2500 kg/ha) | ECHORC herbicidal effect rating ([7]; 0.0313 kg/ha) | ECHORC herbicidal effect rating ([7]; 0.0625 kg/ha) | Herbicidal rating ECHORC ([9]; Rate 0.0313 kg/ha) | Herbicidal rating ECHORC ([9]; Rate 0.0625 kg/ha)
5.0: Preemergence herbicidal rating IPOHE ([2]; rate 0.0625 kg/ha) | Postemergence herbicidal rating GALAP (GALAP (Galium); Rate 0.0315 kg/ha) | Postemergence herbicidal rating GALAP (GALAP (Galium); Rate 0.0630 kg/ha) | ECHORC herbicidal effect rating ([7]; 0.2500 kg/ha) | Preemergence herbicidal rating AMBEL (AMBEL (Ragweed, Common); rate 0.0313 kg/ha) | Herbicidal rating ECHORC ([9]; Rate 0.2500 kg/ha)
7.5: Postemergence herbicidal rating ZEAMX (ZEAMX (Corn, Field) [8]; Rate 0.0158 kg/ha)
3.0: Preemergence herbicidal rating IPOHE ([2]; rate 0.0313 kg/ha) | Preemergence herbicidal rating ZEAMX (ZEAMX (Corn, Field) [4]; rate 0.1250 kg/ha)
9.0: CYPIR herbicidal effect rating (CYPIR (Rice Flatsedge); 0.1250 kg/ha) | CYPIR herbicidal effect rating (CYPIR (Rice Flatsedge); 0.2500 kg/ha) | Preemergence herbicidal rating IPOHE ([2]; rate 0.2500 kg/ha) | Preemergence herbicidal rating CHEAL ([6]; rate 0.0313 kg/ha) | Preemergence herbicidal rating CHEAL ([6]; rate 0.0625 kg/ha) | Preemergence herbicidal rating CHEAL ([6]; rate 0.1250 kg/ha) | Preemergence herbicidal rating CHEAL ([6]; rate 0.2500 kg/ha) | Preemergence herbicidal rating AMBEL (AMBEL (Ragweed, Common); rate 0.1250 kg/ha)

Source: patent publication US20020137929A1, “1 - (3-heterocyclylphenyl) isothiourea, -isourea, -guanidine and -amidine herbicidal agents” (Intellectual Property Department, BASF Aktiengesellschaft, priority 1998, published 2002)
